In ChEMBL document CHEMBL3991601, “The target landscape of clinical kinase drugs” (Science, 2017):
pKd: −log10 of the molar value. The source made the active and inactive calls. Rule as the data show it, for most assays here: actives have a measured Kd and inactives only a lower limit.

How the values were obtained:
[1] = biological target: T1, Glycogen phosphorylase, liver form (Homo sapiens, UniProt P06737); format: subcellular, K-562, COLO 205, SK-N-BE(2) and MV-4-11, Cell lysate; settings: read-out: Kd apparent
T1 sequence (P06737 whole entry): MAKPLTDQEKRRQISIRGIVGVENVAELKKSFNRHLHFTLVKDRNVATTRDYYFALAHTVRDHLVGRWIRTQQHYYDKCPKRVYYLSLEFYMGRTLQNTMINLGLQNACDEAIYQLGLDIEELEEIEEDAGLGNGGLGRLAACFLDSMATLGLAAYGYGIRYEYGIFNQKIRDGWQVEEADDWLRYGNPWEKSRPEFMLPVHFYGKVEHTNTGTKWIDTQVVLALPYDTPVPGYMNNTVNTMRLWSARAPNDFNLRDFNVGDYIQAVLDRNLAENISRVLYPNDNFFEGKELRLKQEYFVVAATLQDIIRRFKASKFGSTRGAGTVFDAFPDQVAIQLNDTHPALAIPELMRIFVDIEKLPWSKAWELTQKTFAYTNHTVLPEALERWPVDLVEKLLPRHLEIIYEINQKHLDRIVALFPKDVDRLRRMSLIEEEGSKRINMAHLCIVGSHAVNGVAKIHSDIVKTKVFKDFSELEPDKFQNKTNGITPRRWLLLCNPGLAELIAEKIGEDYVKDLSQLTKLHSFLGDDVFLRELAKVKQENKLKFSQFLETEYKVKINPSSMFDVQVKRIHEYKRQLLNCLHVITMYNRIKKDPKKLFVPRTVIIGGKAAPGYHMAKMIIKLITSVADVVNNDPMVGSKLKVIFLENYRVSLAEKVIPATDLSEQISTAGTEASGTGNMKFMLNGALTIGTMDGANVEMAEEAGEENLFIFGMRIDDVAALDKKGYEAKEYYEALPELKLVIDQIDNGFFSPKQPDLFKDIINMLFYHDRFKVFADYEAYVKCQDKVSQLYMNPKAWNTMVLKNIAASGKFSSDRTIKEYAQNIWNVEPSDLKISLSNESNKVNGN

[2] = biological target: Casein kinase II subunit alpha' (Homo sapiens, UniProt P19784)
[3] = biological target: Serine/threonine-protein kinase/endoribonuclease IRE1 (Homo sapiens, UniProt O75460)
[4] = biological target: T2, Serine/threonine-protein kinase ICK (Homo sapiens, UniProt Q9UPZ9)
T2 sequence (Q9UPZ9 whole entry): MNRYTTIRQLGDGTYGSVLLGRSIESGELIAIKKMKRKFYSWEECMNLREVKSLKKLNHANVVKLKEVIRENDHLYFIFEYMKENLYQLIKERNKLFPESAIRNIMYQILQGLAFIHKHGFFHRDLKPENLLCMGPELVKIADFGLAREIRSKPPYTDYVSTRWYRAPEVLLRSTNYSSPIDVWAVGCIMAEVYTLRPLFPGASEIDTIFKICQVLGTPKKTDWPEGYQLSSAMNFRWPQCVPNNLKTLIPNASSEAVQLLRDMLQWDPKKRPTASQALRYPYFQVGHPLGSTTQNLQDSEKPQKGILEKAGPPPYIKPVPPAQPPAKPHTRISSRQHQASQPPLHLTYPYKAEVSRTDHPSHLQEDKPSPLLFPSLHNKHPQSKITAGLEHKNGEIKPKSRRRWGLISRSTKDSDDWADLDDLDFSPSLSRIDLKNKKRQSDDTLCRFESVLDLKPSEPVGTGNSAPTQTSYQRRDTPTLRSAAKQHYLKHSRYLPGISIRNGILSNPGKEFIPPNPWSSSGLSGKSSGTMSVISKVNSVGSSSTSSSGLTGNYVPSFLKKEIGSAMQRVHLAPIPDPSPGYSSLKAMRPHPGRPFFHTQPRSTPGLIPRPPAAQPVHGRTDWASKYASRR

Insulin receptor = Insulin receptor (Homo sapiens, UniProt P06213)
[5] = biological target: T3, Mitogen-activated protein kinase kinase kinase 3 (Homo sapiens, UniProt Q99759)
T3 sequence (Q99759 whole entry): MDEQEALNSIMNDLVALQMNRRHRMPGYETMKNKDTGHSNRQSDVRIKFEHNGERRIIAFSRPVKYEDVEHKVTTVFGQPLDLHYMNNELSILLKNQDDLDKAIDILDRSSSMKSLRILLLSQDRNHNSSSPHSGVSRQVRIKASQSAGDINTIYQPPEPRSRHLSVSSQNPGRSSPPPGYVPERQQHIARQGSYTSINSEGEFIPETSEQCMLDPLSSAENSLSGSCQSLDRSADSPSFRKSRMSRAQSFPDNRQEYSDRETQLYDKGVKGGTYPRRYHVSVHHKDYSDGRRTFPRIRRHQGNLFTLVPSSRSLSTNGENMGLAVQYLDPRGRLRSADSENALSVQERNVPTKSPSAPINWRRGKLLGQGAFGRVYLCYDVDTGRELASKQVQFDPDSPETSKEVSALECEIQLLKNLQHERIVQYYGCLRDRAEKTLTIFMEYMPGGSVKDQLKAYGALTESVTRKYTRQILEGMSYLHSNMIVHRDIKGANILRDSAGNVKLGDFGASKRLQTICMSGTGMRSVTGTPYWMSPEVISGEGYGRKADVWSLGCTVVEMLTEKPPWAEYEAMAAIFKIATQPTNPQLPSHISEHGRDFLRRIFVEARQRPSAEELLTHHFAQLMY

[6] = biological target: Serine/threonine-protein kinase PAK 4 (Homo sapiens, UniProt O96013)
[7] = biological target: Tyrosine-protein kinase Yes (Homo sapiens, UniProt P07947)
Also: in the data inactive means no Kd found up to 30 µM.

Chain of Serine/threonine-protein kinase PAK 4 (O96013 whole entry): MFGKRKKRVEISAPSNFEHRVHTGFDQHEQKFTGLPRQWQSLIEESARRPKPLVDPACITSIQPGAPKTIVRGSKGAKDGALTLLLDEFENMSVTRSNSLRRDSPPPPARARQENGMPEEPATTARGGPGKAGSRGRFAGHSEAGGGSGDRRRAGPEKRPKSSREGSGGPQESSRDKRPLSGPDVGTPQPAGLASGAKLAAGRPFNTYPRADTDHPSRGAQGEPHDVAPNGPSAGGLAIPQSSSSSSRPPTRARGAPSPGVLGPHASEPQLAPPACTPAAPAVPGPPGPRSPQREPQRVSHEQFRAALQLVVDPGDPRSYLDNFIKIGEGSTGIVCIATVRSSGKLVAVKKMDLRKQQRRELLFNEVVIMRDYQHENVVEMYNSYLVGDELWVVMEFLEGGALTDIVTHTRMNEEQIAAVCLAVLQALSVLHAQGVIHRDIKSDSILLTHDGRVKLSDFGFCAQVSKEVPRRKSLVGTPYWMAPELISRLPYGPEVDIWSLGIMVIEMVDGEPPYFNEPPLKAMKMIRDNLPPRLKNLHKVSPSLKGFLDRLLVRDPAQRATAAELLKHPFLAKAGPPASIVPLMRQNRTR
Chain of Serine/threonine-protein kinase/endoribonuclease IRE1 (O75460 whole entry): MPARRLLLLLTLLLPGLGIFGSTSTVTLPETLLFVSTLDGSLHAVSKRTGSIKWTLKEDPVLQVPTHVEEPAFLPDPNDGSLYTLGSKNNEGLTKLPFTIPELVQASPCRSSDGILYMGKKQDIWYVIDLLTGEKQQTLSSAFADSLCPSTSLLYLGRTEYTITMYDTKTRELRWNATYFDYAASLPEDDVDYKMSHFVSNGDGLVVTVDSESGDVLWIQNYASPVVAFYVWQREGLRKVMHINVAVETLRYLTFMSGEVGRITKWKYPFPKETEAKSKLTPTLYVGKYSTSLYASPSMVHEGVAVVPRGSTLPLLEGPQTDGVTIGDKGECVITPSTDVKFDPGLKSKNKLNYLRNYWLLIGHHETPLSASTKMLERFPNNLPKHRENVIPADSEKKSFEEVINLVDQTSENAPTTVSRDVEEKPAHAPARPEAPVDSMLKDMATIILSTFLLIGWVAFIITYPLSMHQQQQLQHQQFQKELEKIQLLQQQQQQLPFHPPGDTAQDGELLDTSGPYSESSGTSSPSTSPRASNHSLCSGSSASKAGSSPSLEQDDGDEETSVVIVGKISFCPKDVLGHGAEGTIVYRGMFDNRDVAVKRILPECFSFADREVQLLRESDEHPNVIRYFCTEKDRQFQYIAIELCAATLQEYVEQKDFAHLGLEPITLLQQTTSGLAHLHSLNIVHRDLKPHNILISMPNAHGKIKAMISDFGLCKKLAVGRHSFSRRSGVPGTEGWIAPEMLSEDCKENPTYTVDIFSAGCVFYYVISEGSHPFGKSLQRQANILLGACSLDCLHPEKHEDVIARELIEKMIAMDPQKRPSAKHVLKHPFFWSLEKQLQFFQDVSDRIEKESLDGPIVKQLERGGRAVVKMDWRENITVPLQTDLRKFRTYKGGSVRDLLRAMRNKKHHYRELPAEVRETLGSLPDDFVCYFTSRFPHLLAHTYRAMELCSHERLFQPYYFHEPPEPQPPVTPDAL
Chain of Casein kinase II subunit alpha' (P19784 whole entry): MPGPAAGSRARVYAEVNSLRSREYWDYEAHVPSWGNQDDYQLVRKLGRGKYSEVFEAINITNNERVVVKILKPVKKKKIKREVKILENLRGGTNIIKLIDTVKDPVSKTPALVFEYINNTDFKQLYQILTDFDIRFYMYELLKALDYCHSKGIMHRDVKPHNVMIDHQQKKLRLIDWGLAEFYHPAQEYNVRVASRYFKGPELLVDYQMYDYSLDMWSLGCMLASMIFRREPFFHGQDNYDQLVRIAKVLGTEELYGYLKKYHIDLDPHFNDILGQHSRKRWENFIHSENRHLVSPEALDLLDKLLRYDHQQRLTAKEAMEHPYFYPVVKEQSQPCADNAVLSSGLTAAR
Chain of Tyrosine-protein kinase Yes (P07947 whole entry): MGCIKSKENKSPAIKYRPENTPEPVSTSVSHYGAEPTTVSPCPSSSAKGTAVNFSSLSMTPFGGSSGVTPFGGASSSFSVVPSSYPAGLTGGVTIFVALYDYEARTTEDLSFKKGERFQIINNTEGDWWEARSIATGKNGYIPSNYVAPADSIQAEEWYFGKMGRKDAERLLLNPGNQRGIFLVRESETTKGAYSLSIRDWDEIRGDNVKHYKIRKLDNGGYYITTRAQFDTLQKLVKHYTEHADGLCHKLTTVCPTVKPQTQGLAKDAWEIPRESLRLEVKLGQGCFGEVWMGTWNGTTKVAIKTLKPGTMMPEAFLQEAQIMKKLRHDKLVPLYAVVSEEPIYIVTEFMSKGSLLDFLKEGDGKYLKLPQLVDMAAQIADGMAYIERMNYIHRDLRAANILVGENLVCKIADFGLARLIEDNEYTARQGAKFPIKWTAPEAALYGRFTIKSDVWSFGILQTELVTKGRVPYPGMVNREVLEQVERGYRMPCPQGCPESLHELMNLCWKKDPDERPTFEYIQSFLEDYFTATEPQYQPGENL
Chain of Insulin receptor (P06213 28-758 limits assumed): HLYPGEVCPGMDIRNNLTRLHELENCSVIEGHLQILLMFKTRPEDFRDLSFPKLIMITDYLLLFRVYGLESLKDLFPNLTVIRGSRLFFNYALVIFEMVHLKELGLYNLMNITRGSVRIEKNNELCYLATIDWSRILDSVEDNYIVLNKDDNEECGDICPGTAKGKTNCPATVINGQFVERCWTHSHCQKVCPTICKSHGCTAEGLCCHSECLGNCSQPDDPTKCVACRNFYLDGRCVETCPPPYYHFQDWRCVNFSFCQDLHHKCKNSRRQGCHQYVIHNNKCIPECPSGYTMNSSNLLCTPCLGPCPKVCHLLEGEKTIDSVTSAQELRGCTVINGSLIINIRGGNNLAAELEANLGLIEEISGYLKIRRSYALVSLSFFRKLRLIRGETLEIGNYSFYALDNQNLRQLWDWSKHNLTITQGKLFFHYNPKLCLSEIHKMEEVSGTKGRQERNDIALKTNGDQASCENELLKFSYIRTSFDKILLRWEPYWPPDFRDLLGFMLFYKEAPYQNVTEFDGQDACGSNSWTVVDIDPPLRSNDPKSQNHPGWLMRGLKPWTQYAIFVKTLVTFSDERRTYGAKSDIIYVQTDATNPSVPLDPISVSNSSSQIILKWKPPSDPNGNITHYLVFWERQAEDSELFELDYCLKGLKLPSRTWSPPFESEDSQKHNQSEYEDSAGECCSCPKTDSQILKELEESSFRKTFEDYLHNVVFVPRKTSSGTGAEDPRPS
Chain of Insulin receptor (P06213 763-1382 limits assumed): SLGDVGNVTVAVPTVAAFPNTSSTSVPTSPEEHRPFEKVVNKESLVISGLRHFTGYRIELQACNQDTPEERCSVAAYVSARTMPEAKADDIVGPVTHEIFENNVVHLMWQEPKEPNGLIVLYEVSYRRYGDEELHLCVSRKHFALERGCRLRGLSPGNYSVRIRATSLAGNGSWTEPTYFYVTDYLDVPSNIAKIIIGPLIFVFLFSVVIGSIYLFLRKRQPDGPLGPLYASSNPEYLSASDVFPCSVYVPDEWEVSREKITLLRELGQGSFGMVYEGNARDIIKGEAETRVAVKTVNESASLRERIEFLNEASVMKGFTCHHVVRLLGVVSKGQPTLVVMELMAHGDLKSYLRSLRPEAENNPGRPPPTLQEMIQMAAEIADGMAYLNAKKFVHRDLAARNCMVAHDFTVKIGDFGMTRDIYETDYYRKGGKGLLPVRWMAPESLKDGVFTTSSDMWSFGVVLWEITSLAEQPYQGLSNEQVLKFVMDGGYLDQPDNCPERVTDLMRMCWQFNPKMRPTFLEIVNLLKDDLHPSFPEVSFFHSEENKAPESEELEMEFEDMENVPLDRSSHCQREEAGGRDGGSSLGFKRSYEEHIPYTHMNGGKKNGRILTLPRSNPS

Compound	Kd [1]	Kd [2]	Kd [3]	Kd [4]	Kd (Insulin receptor)	Kd [5]	Kd [6]	Kd [7]	pKd [3]
CN1CC[C@@H](c2c(O)cc(O)c3c(=O)cc(-c4ccccc4Cl)oc23)[C@@H]1CO	> 30 µM (inactive)	> 30 µM (inactive)	> 30 µM (inactive)	0.892 µM (active)	> 30 µM (inactive)	> 30 µM (inactive)	> 30 µM (inactive)	> 30 µM (inactive)	
Cc1ccc(S(=O)(=O)Nc2nc3ccccc3nc2Nc2ccc3nsnc3c2)cc1	> 30 µM (inactive)	> 30 µM (inactive)	> 30 µM (inactive)	> 30 µM (inactive)	> 30 µM (inactive)	> 30 µM (inactive)	> 30 µM (inactive)	> 30 µM (inactive)	
COc1cc2nccc(Oc3ccc(NC(=O)NC4CC4)c(Cl)c3)c2cc1C(N)=O [LENVATINIB]	> 30 µM (inactive)	> 30 µM (inactive)		> 30 µM (inactive)	> 30 µM (inactive)	> 30 µM (inactive)	> 30 µM (inactive)	> 30 µM (inactive)	5.65
COC(=O)N[C@@H](C)CNc1nccc(-c2cn(C(C)C)nc2-c2cc(Cl)cc(NS(C)(=O)=O)c2F)n1 [ENCORAFENIB]	> 30 µM (inactive)	> 30 µM (inactive)	> 30 µM (inactive)	> 30 µM (inactive)	> 30 µM (inactive)	> 30 µM (inactive)	> 30 µM (inactive)	> 30 µM (inactive)	
COCCNCc1ccc(-c2cc3nccc(Oc4ccc(NC(=S)NC(=O)Cc5ccc(F)cc5)cc4F)c3s2)nc1 [GLESATINIB]	> 30 µM (inactive)	> 30 µM (inactive)	> 30 µM (inactive)	> 30 µM (inactive)	> 30 µM (inactive)	> 30 µM (inactive)	> 30 µM (inactive)	> 30 µM (inactive)	
CCS(=O)(=O)N1CC(CC#N)(n2cc(-c3ncnc4[nH]ccc34)cn2)C1 [BARICITINIB]	> 30 µM (inactive)	> 30 µM (inactive)	> 30 µM (inactive)	> 30 µM (inactive)	> 30 µM (inactive)	> 30 µM (inactive)	> 30 µM (inactive)	> 30 µM (inactive)	
Cc1c(F)cc(C(=O)NC2CC2)cc1-c1ccc(C(=O)NCC(C)(C)C)cn1 [LOSMAPIMOD]	> 30 µM (inactive)	> 30 µM (inactive)	> 30 µM (inactive)	> 30 µM (inactive)	> 30 µM (inactive)	> 30 µM (inactive)	> 30 µM (inactive)	> 30 µM (inactive)	
CC(=O)Nc1cccc(-n2c(=O)n(C3CC3)c(=O)c3c(Nc4ccc(I)cc4F)n(C)c(=O)c(C)c32)c1 [TRAMETINIB]	> 30 µM (inactive)	> 30 µM (inactive)	> 30 µM (inactive)	> 30 µM (inactive)	> 30 µM (inactive)	> 30 µM (inactive)	> 30 µM (inactive)	> 30 µM (inactive)	
O=C(O)[C@]1(Cc2cccc(Nc3nccs3)n2)CC[C@@H](Oc2cccc(Cl)c2F)CC1 [MK-5108]	> 30 µM (inactive)	> 30 µM (inactive)	> 30 µM (inactive)	> 30 µM (inactive)	> 30 µM (inactive)	> 30 µM (inactive)	> 30 µM (inactive)	> 30 µM (inactive)	
C1=C/COCc2cc(ccc2OCCN2CCCC2)Nc2nccc(n2)-c2cccc(c2)COC/1 [PACRITINIB]	> 30 µM (inactive)	0.394 µM (active)	> 30 µM (inactive)	0.27 µM (active)	> 30 µM (inactive)	> 30 µM (inactive)	> 30 µM (inactive)	> 30 µM (inactive)	
N[C@@H]1CCCN(c2c(/C=C3\SC(=O)NC3=O)cccc2-c2ccccc2)C1	> 30 µM (inactive)	3.02 µM (active)	> 30 µM (inactive)	> 30 µM (inactive)	> 30 µM (inactive)	> 30 µM (inactive)	> 30 µM (inactive)	> 30 µM (inactive)	
Cc1ccc(NC(=O)c2ccc(CN3CC[C@H](N(C)C)C3)c(C(F)(F)F)c2)cc1Nc1nccc(-c2cncnc2)n1 [BAFETINIB]	> 30 µM (inactive)	> 30 µM (inactive)	> 30 µM (inactive)	> 30 µM (inactive)	> 30 µM (inactive)	> 30 µM (inactive)	> 30 µM (inactive)	> 30 µM (inactive)	
O=C(Nc1ccc(-c2ccnc(Nc3ccc(N4CCOCC4)cc3)n2)cc1)C1CCCN1 (centres undefined) [XL-019]	> 30 µM (inactive)	7.15 µM (active)	> 30 µM (inactive)	> 30 µM (inactive)	> 30 µM (inactive)	> 30 µM (inactive)	> 30 µM (inactive)	> 30 µM (inactive)	
O=C(c1ccc(F)c(F)c1Nc1ccc(I)cc1F)N1CC(O)([C@@H]2CCCCN2)C1 [COBIMETINIB]	> 30 µM (inactive)	> 30 µM (inactive)	> 30 µM (inactive)	> 30 µM (inactive)	> 30 µM (inactive)	> 30 µM (inactive)	> 30 µM (inactive)	> 30 µM (inactive)	
C[C@@H]1CN(Cc2ccc(F)cc2)[C@@H](C)CN1C(=O)c1cc2c(C(=O)C(=O)N(C)C)cn(C)c2cc1Cl [TALMAPIMOD]	> 30 µM (inactive)	> 30 µM (inactive)	> 30 µM (inactive)	> 30 µM (inactive)	> 30 µM (inactive)	> 30 µM (inactive)	> 30 µM (inactive)	> 30 µM (inactive)	
Cc1cc(-c2cc(O)ccc2Cl)cc2nnc(Nc3ccc(OCCN4CCCC4)cc3)nc12	> 30 µM (inactive)	> 30 µM (inactive)	> 30 µM (inactive)	> 30 µM (inactive)	> 30 µM (inactive)	> 30 µM (inactive)	> 30 µM (inactive)	0.001 µM (active)	
COc1cc(CCc2cc(NC(=O)c3ccc(N4C[C@@H](C)N[C@@H](C)C4)cc3)n[nH]2)cc(OC)c1 [AZD-4547]	> 30 µM (inactive)	> 30 µM (inactive)	> 30 µM (inactive)	> 30 µM (inactive)	> 30 µM (inactive)	> 30 µM (inactive)	> 30 µM (inactive)	> 30 µM (inactive)	
Cc1cc([C@@H](C)Nc2ccccc2C(=O)O)c2nc(N3CCOCC3)cc(=O)n2c1 [AZD-6482]	> 30 µM (inactive)	> 30 µM (inactive)	> 30 µM (inactive)	> 30 µM (inactive)	> 30 µM (inactive)	> 30 µM (inactive)	> 30 µM (inactive)	> 30 µM (inactive)	
